Assay results taken from PubChem BioAssay AID2060889 (Molecular Pharmacology Branch, DTP, NCI, 2025).
Values belong to the molecule of their own block, whether it stands above or below them.

Test system: LG0567-F671-PDC complex spheroids viability
Assay: Anticancer human tumor LG0567-F671-PDC patient-derived lung adenocarcinoma cell line growth inhibition [RAS]
Conditions: for IC50: curve of first compound; for viability, T/C: stronger effect = lower value
Summary of the method: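 Tumour cells grown as complex spheroids with HUVEC endothelial cells and mesenchymal stem cells, treated with RAS pathway inhibitor combinations. Each agent spans half-log steps from near clinical Cmax, or 10 microM where Cmax is unknown.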

[1] = second compound 0.0316 µM, first compound 0.00316 µM
[2] = second compound 0.0316 µM, first compound 0.01 µM
[3] = second compound 0.0316 µM, first compound 0.0316 µM
[4] = second compound 0.0316 µM, first compound 0.1 µM
[5] = second compound 0.1 µM, first compound 0.00316 µM
[6] = second compound 0.1 µM, first compound 0.01 µM
[7] = second compound 0.1 µM, first compound 0.0316 µM
[8] = second compound 0.1 µM, first compound 0.1 µM
[9] = second compound 0.316 µM, first compound 0.00316 µM
[10] = second compound 0.316 µM, first compound 0.01 µM
[11] = second compound 0.316 µM, first compound 0.0316 µM
[12] = second compound 0.316 µM, first compound 0.1 µM
[13] = second compound 1 µM, first compound 0.00316 µM
[14] = second compound 1 µM, first compound 0.01 µM
[15] = second compound 1 µM, first compound 0.0316 µM
[16] = second compound 1 µM, first compound 0.1 µM
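Also: spheroids exposed to compound for seven days before readout.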
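For IC50 in this document: luminescence signal used as a proxy for viable cells.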

IC50 (second compound 0.000949 µM): < 31.6 nM
IC50 (second compound 0.003 µM): < 31.6 nM
IC50 (second compound 0.00949 µM): < 31.6 nM
IC50 (second compound 0.03 µM): < 31.6 nM
IC50 (second compound 0.0949 µM): < 31.6 nM
IC50 (second compound 0.3 µM): < 31.6 nM
SMILES: CCC(CC)c1cc(NC2CCC(N)C2)n2nccc2n1 (stereo unspecified) + CCn1c(-c2cccnc2C(C)OC)c2c3cc(ccc31)N1CCOC(CC(NC(=O)C(C(C)C)N(C)C(=O)C3(F)CCN(C(=O)C#CC(C)(C)N(C)C)CC3)C(=O)N3CCCC(N3)C(=O)OCC(C)(C)C2)C1
viability, T/C (second compound 0.000949 µM, first compound 0.0316 µM): 21.2%
viability, T/C (second compound 0.000949 µM, first compound 0.1 µM): 16.6%
viability, T/C (second compound 0.000949 µM, first compound 0.316 µM): 13.3%
viability, T/C (second compound 0.000949 µM, first compound 1 µM): 13.9%
viability, T/C (second compound 0.000949 µM, first compound 3.16 µM): 4.31%
viability, T/C (second compound 0.000949 µM, first compound 10 µM): 0.82%
viability, T/C (second compound 0.003 µM, first compound 0.0316 µM): 14.1%
viability, T/C (second compound 0.003 µM, first compound 0.1 µM): 16.1%
viability, T/C (second compound 0.003 µM, first compound 0.316 µM): 14.6%
viability, T/C (second compound 0.003 µM, first compound 1 µM): 13.5%
viability, T/C (second compound 0.003 µM, first compound 3.16 µM): 4.44%
viability, T/C (second compound 0.003 µM, first compound 10 µM): 0.75%
viability, T/C (second compound 0.00949 µM, first compound 0.0316 µM): 13.7%
viability, T/C (second compound 0.00949 µM, first compound 0.1 µM): 15%
viability, T/C (second compound 0.00949 µM, first compound 0.316 µM): 13.3%
viability, T/C (second compound 0.00949 µM, first compound 1 µM): 14.2%
viability, T/C (second compound 0.00949 µM, first compound 3.16 µM): 3.48%
viability, T/C (second compound 0.00949 µM, first compound 10 µM): 0.89%
viability, T/C (second compound 0.03 µM, first compound 0.0316 µM): 13.2%
viability, T/C (second compound 0.03 µM, first compound 0.1 µM): 13.2%
viability, T/C (second compound 0.03 µM, first compound 0.316 µM): 11.8%
viability, T/C (second compound 0.03 µM, first compound 1 µM): 12.3%
viability, T/C (second compound 0.03 µM, first compound 3.16 µM): 3.67%
viability, T/C (second compound 0.03 µM, first compound 10 µM): 0.88%
viability, T/C (second compound 0.0949 µM, first compound 0.0316 µM): 10.6%
viability, T/C (second compound 0.0949 µM, first compound 0.1 µM): 12.2%
viability, T/C (second compound 0.0949 µM, first compound 0.316 µM): 10.4%
viability, T/C (second compound 0.0949 µM, first compound 1 µM): 12%
viability, T/C (second compound 0.0949 µM, first compound 3.16 µM): 4.19%
viability, T/C (second compound 0.0949 µM, first compound 10 µM): 1%
viability, T/C (second compound 0.3 µM, first compound 0.0316 µM): 8.88%
viability, T/C (second compound 0.3 µM, first compound 0.1 µM): 7.92%
viability, T/C (second compound 0.3 µM, first compound 0.316 µM): 8.86%
viability, T/C (second compound 0.3 µM, first compound 1 µM): 9.25%
viability, T/C (second compound 0.3 µM, first compound 3.16 µM): 3.79%
viability, T/C (second compound 0.3 µM, first compound 10 µM): 0.7%

IC50 (second compound 0.0316 µM): 19.6 nM
IC50 (second compound 0.1 µM): 17.8 nM
IC50 (second compound 0.316 µM): 1.32 nM
IC50 (second compound 1 µM): < 0.316 nM
IC50 (second compound 3.16 µM): < 0.316 nM
IC50 (second compound 10 µM): < 0.316 nM
SMILES: CC(C)n1nc(-c2ccc3oc(N)nc3c2)c2c(N)ncnc21 + C#Cc1c(F)ccc2cc(O)cc(-c3ncc4c(N5CC6CCC(C5)N6)nc(OCC56CCCN5CC(F)C6)nc4c3F)c12
viability, T/C (second compound 0.0316 µM, first compound 0.000316 µM): 90.7%
viability, T/C (second compound 0.0316 µM, first compound 0.001 µM): 77.8%
viability, T/C [1]: 83.4%
viability, T/C [2]: 58.3%
viability, T/C [3]: 44.3%
viability, T/C [4]: 34.1%
viability, T/C (second compound 0.1 µM, first compound 0.000316 µM): 73.3%
viability, T/C (second compound 0.1 µM, first compound 0.001 µM): 73.5%
viability, T/C [5]: 61.1%
viability, T/C [6]: 58.2%
viability, T/C [7]: 43.2%
viability, T/C [8]: 33%
viability, T/C (second compound 0.316 µM, first compound 0.000316 µM): 52.9%
viability, T/C (second compound 0.316 µM, first compound 0.001 µM): 48.9%
viability, T/C [9]: 49.1%
viability, T/C [10]: 40.8%
viability, T/C [11]: 34.2%
viability, T/C [12]: 28.5%
viability, T/C (second compound 1 µM, first compound 0.000316 µM): 36.7%
viability, T/C (second compound 1 µM, first compound 0.001 µM): 36.2%
viability, T/C [13]: 30.8%
viability, T/C [14]: 24.9%
viability, T/C [15]: 22.3%
viability, T/C [16]: 18.5%
viability, T/C (second compound 3.16 µM, first compound 0.000316 µM): 21.4%
viability, T/C (second compound 3.16 µM, first compound 0.001 µM): 19.9%
viability, T/C (second compound 3.16 µM, first compound 0.00316 µM): 20.1%
viability, T/C (second compound 3.16 µM, first compound 0.01 µM): 15.6%
viability, T/C (second compound 3.16 µM, first compound 0.0316 µM): 13.6%
viability, T/C (second compound 3.16 µM, first compound 0.1 µM): 9.08%
viability, T/C (second compound 10 µM, first compound 0.000316 µM): 11.7%
viability, T/C (second compound 10 µM, first compound 0.001 µM): 10.7%
viability, T/C (second compound 10 µM, first compound 0.00316 µM): 8.74%
viability, T/C (second compound 10 µM, first compound 0.01 µM): 9.19%
viability, T/C (second compound 10 µM, first compound 0.0316 µM): 6.42%
viability, T/C (second compound 10 µM, first compound 0.1 µM): 5.01%

IC50 (second compound 0.00316 µM): < 3.16 nM
IC50 (second compound 0.01 µM): < 3.16 nM
IC50 (second compound 0.0316 µM): < 3.16 nM
IC50 (second compound 0.1 µM): < 3.16 nM
IC50 (second compound 0.316 µM): < 3.16 nM
IC50 (second compound 1 µM): < 3.16 nM
SMILES: CCN1CCN(Cc2ccc(Nc3ncc(F)c(-c4cc(F)c5nc(C)n(C(C)C)c5c4)n3)nc2)CC1 + C=CC(=O)N1CCN(c2nc(OCC3CCCN3C)nc3c(F)c(-c4nc(N)cc(C)c4C(F)(F)F)c(Cl)cc23)C(C)C1
viability, T/C (second compound 0.00316 µM, first compound 0.00316 µM): 16.6%
viability, T/C (second compound 0.00316 µM, first compound 0.01 µM): 14.9%
viability, T/C (second compound 0.00316 µM, first compound 0.0316 µM): 13.7%
viability, T/C (second compound 0.00316 µM, first compound 0.1 µM): 14.2%
viability, T/C (second compound 0.00316 µM, first compound 0.316 µM): 16.6%
viability, T/C (second compound 0.00316 µM, first compound 1 µM): 22%
viability, T/C (second compound 0.01 µM, first compound 0.00316 µM): 13.5%
viability, T/C (second compound 0.01 µM, first compound 0.01 µM): 14.1%
viability, T/C (second compound 0.01 µM, first compound 0.0316 µM): 14.4%
viability, T/C (second compound 0.01 µM, first compound 0.1 µM): 11.8%
viability, T/C (second compound 0.01 µM, first compound 0.316 µM): 14.9%
viability, T/C (second compound 0.01 µM, first compound 1 µM): 20.2%
viability, T/C [1]: 14.8%
viability, T/C [2]: 13.1%
viability, T/C [3]: 11.7%
viability, T/C [4]: 12.4%
viability, T/C (second compound 0.0316 µM, first compound 0.316 µM): 14.3%
viability, T/C (second compound 0.0316 µM, first compound 1 µM): 21.2%
viability, T/C [5]: 11.7%
viability, T/C [6]: 11.5%
viability, T/C [7]: 12.4%
viability, T/C [8]: 11.5%
viability, T/C (second compound 0.1 µM, first compound 0.316 µM): 15%
viability, T/C (second compound 0.1 µM, first compound 1 µM): 18.1%
viability, T/C [9]: 12.7%
viability, T/C [10]: 13.1%
viability, T/C [11]: 11.9%
viability, T/C [12]: 11.3%
viability, T/C (second compound 0.316 µM, first compound 0.316 µM): 13.8%
viability, T/C (second compound 0.316 µM, first compound 1 µM): 17.2%
viability, T/C [13]: 13.4%
viability, T/C [14]: 14.9%
viability, T/C [15]: 12.6%
viability, T/C [16]: 13.7%
viability, T/C (second compound 1 µM, first compound 0.316 µM): 16.1%
viability, T/C (second compound 1 µM, first compound 1 µM): 20.9%
